From EP4596556A1, “SPIROCYCLIC DERIVATIVE-CONTAINING SALT OR CRYSTAL FORM, AND PREPARATION METHOD THEREFOR AND USE THEREOF” (Shujing Biopharma Co., Ltd, priority 2022, dated 2024)
Values after ≈ are worked out from the molar mass of the structure shown. Counter-ions that a name gives are not always drawn. Like-named read-outs stand apart in the source and are kept apart here.

Tests used:
TAAR1 receptor = biological target: T1, TAAR1 receptor (Homo sapiens, UniProt Q96RJ0); assay: TAAR1 receptor cAMP agonist test; format: cell-based
T1 sequence (Q96RJ0 1-339): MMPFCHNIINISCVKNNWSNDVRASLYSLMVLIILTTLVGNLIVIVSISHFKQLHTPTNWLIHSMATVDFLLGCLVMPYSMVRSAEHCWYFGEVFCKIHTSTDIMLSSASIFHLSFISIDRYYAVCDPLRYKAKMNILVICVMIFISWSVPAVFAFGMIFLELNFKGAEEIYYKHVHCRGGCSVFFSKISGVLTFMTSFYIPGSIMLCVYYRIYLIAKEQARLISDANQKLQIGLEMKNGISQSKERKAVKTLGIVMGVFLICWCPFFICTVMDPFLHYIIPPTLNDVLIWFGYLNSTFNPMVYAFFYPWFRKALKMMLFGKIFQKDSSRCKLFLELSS
From the text: The cAMP detection kit was purchased from Cisbio; the […] cell line stably expressing TAAR1 receptor was constructed by Shanghai Shujing Biotechnology Co., Ltd.; IBMX was purchased from Sigma; Phenethylamine (PEA); ProxiPlate-384 well plate was purchased from PerkinElmer; HBSS was purchased from Thermo Fisher Scientific Company.
Activation rate (activity%)=(negative control ratio-compound ratio)/(negative control ratio-positive control ratio)×100%.
The EC50 values of the compounds were calculated using the four-parameter fitting model log(agonist)vs.response--Variable slope(four parameters) in GraphPad Prism.

5-HT1A receptor = biological target: T2, 5-HT1A receptor (Homo sapiens, UniProt P08908); assay: 5-HT1A receptor cAMP agonist test; format: cell-based
T2 sequence (P08908 1-422): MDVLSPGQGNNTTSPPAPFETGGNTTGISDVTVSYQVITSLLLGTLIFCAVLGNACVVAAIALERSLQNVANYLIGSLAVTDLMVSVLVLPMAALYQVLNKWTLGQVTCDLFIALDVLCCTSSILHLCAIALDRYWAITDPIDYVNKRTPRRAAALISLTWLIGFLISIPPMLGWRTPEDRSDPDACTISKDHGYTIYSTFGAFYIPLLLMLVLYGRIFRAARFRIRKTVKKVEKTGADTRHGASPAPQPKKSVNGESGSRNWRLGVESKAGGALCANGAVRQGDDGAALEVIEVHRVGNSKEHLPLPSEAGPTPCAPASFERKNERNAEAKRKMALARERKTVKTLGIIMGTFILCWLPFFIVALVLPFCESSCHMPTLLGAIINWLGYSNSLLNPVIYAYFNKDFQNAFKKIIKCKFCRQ
From the text: The cAMP detection kit was purchased from Cisbio; the HEK293 cell line stably expressing 5-HT1A receptor was constructed by Shanghai Shujing Biotechnology Co., Ltd.; Serotonin, Forskolin and IBMX were purchased from Sigma; ProxiPlate-384-well plates was purchased from PerkinElmer; HBSS was purchased from Thermo Fisher Scientific.
Activation rate (activity%)=(negative control ratio-compound ratio)/(negative control ratio-positive control ratio)×100%
The EC50 values of the compounds were calculated using the four-parameter fitting model log(agonist)vs. response--Variable slope(four parameters) in Graph Pad Prism.

[1] = system: high spontaneous activity induced by MK-801 in mice; assay: Inhibition of high spontaneous activity induced by MK-801 in mice; format: in vivo; conditions: p.o., MK-801 0.3 mg/kg i.p., male C57Bl/6J mice
Procedure: Compounds to be tested: compounds in the examples of the present application, self-made.
3.2.1 Grouping of animals: before the start of the experiment, animals were randomly grouped according to body weight.
3.2.2 Animal adaptation: before the experiment, the mice were first adapted to the experimental environment for at least 1 hour. That is, the animals were transferred from the breeding room to the laboratory and moved freely in the cage.
(§1) Drug preparation: taking the compound to be tested, adding pure water and performing ultrasonication.
The blank control group was injected with normal saline.
(§2) The activities of these animals (movement distance in the test box) were automatically recorded by the camera, and analyzed with ANY MAZE software, and the ED50 values were calculated.

[2] = system: high spontaneous activity induced by PCP in mice; assay: Inhibition of high spontaneous activity induced by PCP in mice; format: in vivo; conditions: p.o., PCP 5 mg/kg i.p., male C57Bl/6J mice
Procedure: Compounds to be tested: compounds of the examples of the present application, self-made.
That is, animals were transferred from the feeding room to the laboratory, and moved freely in the cage.
as §1
T0 min intraperitoneal injection of modeling drug: 30 minutes after compound administration, the mice were taken out, and administered with PCP (5 mg/kg) by intraperitoneal injection. The blank control group was injected with pure water. After the administration of PCP, the animals were immediately put back into the test box, and the test was continued for 60 minutes.
as §2

[3] = Equilibrium solubility in water for 24 hours; format: physicochemical
Procedure: Investigating the equilibrium solubility of each hydrochloride crystal form of Compound A in water for 24 hours.
Excess samples of hydrochloride crystal form I and hydrochloride crystal form II of Compound A were weighed and placed in different 10 mL centrifuge tubes, and 1 mL of deionized water was added, sealed with a parafilm, shaking at a constant temperature of 37°C and 150 rpm for 24 hours; after passing through a 0.45 µm organic filter, the sample was diluted and injected for HPLC analysis.

[4] = Mouse pharmacokinetic experiment, oral gavage; format: in vivo; conditions: ICR mice, 5 mg/kg, plasma
Procedure: The mice were administered by oral gavage, and the plasma concentrations of each hydrochloride crystal form of Compound A in mice were determined, the PK parameters were calculated, and the pharmacokinetics were evaluated.
• (1) Experimental samples: hydrochloride crystal forms I, II, and III of Compound A of the present application, self-made. • (2) Experimental animals: ICR mice, SPF grade, male, Shanghai SLAC Laboratory Animal Co., Ltd.
The compound was administered via oral gavage at a dosage of 5 mg/kg. ICR mice were stratified by body weight and randomly divided into groups of 3 mice each, and fasted overnight before the experiment. Administering according to the prescribed dosage and schedule, and […] of blood was taken from the mandibular vein or saphenous vein of mice by cross sampling at fixed time points to a sample tube containing anticoagulant sodium heparin and placed in wet ice, centrifuging at 4000 r · min^-1 for 10 minutes to separate the plasma for LC-MS analysis.
The measured blood drug concentration-time data was substituted into the Winnonlin 7.0 program to calculate the main pharmacokinetic parameters. Table 3.3: Results of mouse pharmacokinetic experiments

[5] = Solution stability at different pH (HPLC content, 0-24 hours); format: physicochemical; conditions: after 24 hours at pH 1.0, 3.0, 5.0 and 7.0
Procedure: Investigating the solution stability of each hydrochloride crystal form of Compound A.
Solutions with pH of 1.0, 3.0, 5.0, and 7.0 solutions were prepared using hydrochloric acid, phosphoric acid, and sodium hydroxide. Appropriate amounts of hydrochloride crystal form I and hydrochloride crystal form II of Compound A were accurately weighed respectively and added to corresponding 20 mL volumetric flasks and labeled, dissolving in media with different pH, passing through a 0.45 µ m organic filters for HPLC analysis. The content changes of the samples from 0-24 hours were monitor, and the results were calculated.

[6] = Solid (chemical) stability under high temperature, high humidity and light; format: physicochemical
Procedure: Investigating the chemical stability of each hydrochloride crystal form of Compound A under high temperature, high humidity, and light conditions.
Appropriate amounts of hydrochloride crystal form I and hydrochloride crystal form II of Compound A were weighed and placed in weighing dishes respectively; three samples for each salt were prepared, and placed respectively in a oven at 60°C, a drying dish with RH 92.5%, and a stability test chamber with an illumination condition of 5000 1x for 85 days. After mixing all samples evenly at day 0, day 10, day 20, and day 85, samples were taken and dissolved in acetonitrile and water, and the content and impurity changes were detected by HPLC-related substance detection method.

[7] = Mus musculus, half effective dose

| SMILES | AUC(inf) [4] | Cmax [4] | Tmax [4] | t1/2 [4] | solution stability [5] | Increase of total impurities (%) day 10 ([6]; High humidity of RH 92.5%) | Increase of total impurities (%) day 20 ([6]; High humidity of RH 92.5%) | Increase of total impurities (%) day 85 ([6]; High humidity of RH 92.5%) | Increase of total impurities (%) day 10 ([6]; High temperature of 60°C) | Increase of total impurities (%) day 20 ([6]; High temperature of 60°C) | Increase of total impurities (%) day 85 ([6]; High temperature of 60°C) | Increase of total impurities (%) day 10 ([6]; Illumination of 5000 lx) | Increase of total impurities (%) day 20 ([6]; Illumination of 5000 lx) | Increase of total impurities (%) day 85 ([6]; Illumination of 5000 lx) | other results |
| --- | --- | --- | --- | --- | --- | --- | --- | --- | --- | --- | --- | --- | --- | --- | --- |
| CNC[C@@H]1OCC2(CC2)c2sccc21 (single isomer, unassigned) [Compound A] |  |  |  |  |  |  |  |  |  |  |  |  |  |  | EC50 (TAAR1 receptor; cAMP agonist assay, cell line stably expressing TAAR1 receptor): 1550 nM; TAAR1 Max Act% (TAAR1 receptor; maximum activation rate relative to PEA positive control): 95.5%; EC50 (5-HT1A receptor; cAMP agonist assay, HEK293 cell line stably expressing 5-HT1A receptor, Forskolin): 1040 nM; 5-HT1A Max Act% (5-HT1A receptor; maximum activation rate relative to Serotonin positive control): 95.2%; ED50 [1, 7]: 4.48 mg/kg; MED ([1]; minimum effective dose): 10 mg/kg; ED50 [2, 7]: 0.45 mg/kg; MED ([2]; minimum effective dose): 0.1 mg/kg |
| CNC[C@@H]1OCC2(CC2)c2sccc21 [(R)-1-(4'H,6'H-spiro[cyclopropane-1,7'-thieno[3,2-c]pyran]-4'-yl)-N-methylmethyl-amine] | 1452.6 ng·h/mL | 480.3 ng/mL | 0.5 h | 3.6 h |  |  |  |  |  |  |  |  |  |  | solubility at 24 h ([3]; deionized water, 37 °C, water, thermodynamic from solid): 155 mg/mL (≈ 740 mM); AUC(0-inf) ([4]; male, ICR, mouse, po): 1930 ng·h/mL; half-life ([4]; male, ICR, mouse, po): 2.8 h; Cmax ([4]; male, ICR, mouse, po, read-out: Cmax): 606 ng/mL; Tmax ([4]; male, mouse, read-out: Tmax): 0.5 h |
| CNC[C@@H]1OCC2(CC2)c2sccc21 [Hydrochloride crystal form I of Compound A] [(R)-1-(4'H,6'H-spiro[cyclopropane-1,7'-thieno[3,2-c]pyran]-4'-yl)-N-methylmethyl-amine] |  |  |  |  | good stability | <0.1% | <0.1% | 0.199% | <0.1% | <0.1% | 0.182% | <0.1% | <0.1% | <0.1% |  |
| CNC[C@@H]1OCC2(CC2)c2sccc21 [Hydrochloride crystal form II of Compound A] [(R)-1-(4'H,6'H-spiro[cyclopropane-1,7'-thieno[3,2-c]pyran]-4'-yl)-N-methylmethyl-amine] | 1546.6 ng·h/mL | 488.7 ng/mL | 0.5 h | 2.2 h | good stability | <0.1% | <0.1% | 0.145% | <0.1% | <0.1% | 0.133% | <0.1% | <0.1% | <0.1% | Solubility ([3]; equilibrium solubility in deionized water, 37°C): 162.30 mg/mL |
